According to patent publication US20240148821A1, “PHARMACEUTICAL USE OF CYCLIC PEPTIDE COMPOUND” (CHUGAI SEIYAKU KABUSHIKI KAISHA, priority 2021, published 2024):
Numbered stars: 1 amine (or outer) side, 2 acyl side, 3 side chain; on linkers, the order of the positions; unused ones are H or OH. Bridge positions count the residues as written; N and C are the ends. Square brackets hold non-standard residues; d marks the D form. Peptide text beside a SMILES is read from it. * marks the point of attachment. hPhe(3,5-F2-4-CF3) = N[C@@H](CCc1cc(F)c(C(F)(F)F)c(F)c1)C(=O)O; hPhe(3-Cl-4-CF3) = N[C@@H](CCc1ccc(C(F)(F)F)c(Cl)c1)C(=O)O; NMePhe(4-CF3) = CN[C@@H](Cc1ccc(C(F)(F)F)cc1)C(=O)O; X25 = COc1ccc(C[C@@H](C(=O)[*:2])N(C)[*:1])cn1; NMePhe(4-Me) = CN[C@@H](Cc1ccc(C)cc1)C(=O)O; NMeGly(cPent) = CN[C@H](C(=O)O)C1CCCC1; Phe(3-I) = N[C@@H](Cc1cccc(I)c1)C(=O)O; NMeY = CN[C@@H](Cc1ccc(O)cc1)C(=O)O; NMeCha = CN[C@@H](CC1CCCCC1)C(=O)O; NMeAoc(2) = CCCCCC[C@H](NC)C(=O)O; NMeChg = CN[C@H](C(=O)O)C1CCCCC1; NMeF = CN[C@@H](Cc1ccccc1)C(=O)O; NMeI = CC[C@H](C)[C@H](NC)C(=O)O; NMeD = CN[C@@H](CC(=O)O)C(=O)O; NMeL = CN[C@@H](CC(C)C)C(=O)O; NMePra = C#CC[C@H](NC)C(=O)O; NMeNva = CCC[C@H](NC)C(=O)O; NMeV = CN[C@H](C(=O)O)C(C)C; d(β3hA) = C[C@@H](N)CC(=O)O; NMeAbu = CC[C@H](NC)C(=O)O; NMeA = CN[C@@H](C)C(=O)O; NMeAib = CNC(C)(C)C(=O)O; Nle = CCCC[C@H](N)C(=O)O; Piperidide = C1CCN(*)CC1; Pra = C#CC[C@H](N)C(=O)O; Pyrrolidide = C1CCN(*)C1; Ac5c = NC1(C(=O)O)CCCC1; Aze = O=C(O)[C@@H]1CCN1; Aib = CC(C)(N)C(=O)O; Sar = CNCC(=O)O

Test system: Human pancreatic cancer cell line AsPC-1 (G12D mutation Kras)
Test: AsPC-1 cell growth inhibition (AsPC-1 CGI)
Type: cell-based
Conditions: read-out: AsPC-1 cell growth inhibition, 50% growth inhibitory concentration (IC50 value); 96 hours, CellTiter-Glo, values classified in ranges
Description: Test compounds were serially dilated with dimethyl sulfoxide, and 200 nL was then dispensed to a U-bottom 96-well plate using Labcyte Echo. […] The cell suspension was dispensed to a. plate containing a test compound at 100 μL per well and incubated at 37° C. in a 5% carbon dioxide gas incubator. 96 hours later, 80 μL of CellTiter-Glo (Promega) was added to each well and fluorescence was measured.

SMILES | IC50 [nM]
CC[C@H](C)[C@@H]1NC(=O)[C@H](CC(C)C)N(C)C(=O)C[C@@H](C(=O)N2CCCCC2)N(C)C(=O)[C@H](C2CCCCC2)N(C)C(=O)C2(CCCC2)NC(=O)[C@H](Cc2ccc(OC)nc2)N(C)C(=O)[C@H](CCc2ccc(C(F)(F)F)c(Cl)c2)NC(=O)CN(C)C(=O)[C@H](CC2CCCCC2)N(C)C(=O)[C@@H]2CCN2C(=O)CN(C)C1=O [Compound 614] ([NMeL]I[Sar][Aze][NMeCha][Sar][hPhe(3-Cl-4-CF3)][X25][Ac5c][NMeChg][NMeD]-Piperidide; lactam N-11) | > 500
CCCCCC[C@H]1C(=O)N[C@@H]([C@@H](C)CC)C(=O)N(C)CC(=O)N2CC[C@H]2C(=O)N(C)[C@@H](Cc2ccc(OC)cc2)C(=O)N(C)CC(=O)N[C@@H](Cc2cccc(I)c2)C(=O)N[C@@H](CCCC)C(=O)N(C)C(C)(C)C(=O)N[C@@H](CC(C)C)C(=O)N(C)[C@H](C(=O)N2CCCCC2)CC(=O)N1C [Compound 1417] ([NMeAoc(2)]I[Sar][Aze][NMeY](Me)[Sar][Phe(3-I)][Nle][NMeAib]L[NMeD]-Piperidide; lactam N-11) | > 500
C#CC[C@@H]1NC(=O)[C@H](Cc2cccc(I)c2)NC(=O)CN(C)C(=O)[C@H](Cc2ccc(OC)cc2)N(C)C(=O)CN(C)C(=O)CN(C)C(=O)[C@H]([C@@H](C)CC)NC(=O)[C@H](CC(C)C)N(C)C(=O)C[C@@H](C(=O)N2CCCCC2)N(C)C(=O)[C@H](CC(C)C)NC(=O)C(C)(C)N(C)C1=O [Compound 1169] ([NMeL]I[Sar][Sar][NMeY](Me)[Sar][Phe(3-I)][Pra][NMeAib]L[NMeD]-Piperidide; lactam N-11) | > 500
CC[C@H](C)[C@@H]1NC(=O)[C@H](CC(C)C)N(C)C(=O)C[C@@H](C(=O)N2CCCCC2)N(C)C(=O)[C@H](CC)N(C)C(=O)C2(CCCC2)NC(=O)[C@@H]2CCCN2C(=O)[C@H](CCc2ccc(C(F)(F)F)c(Cl)c2)NC(=O)CN(C)C(=O)[C@H](CC2CCCCC2)N(C)C(=O)CN(C)C(=O)CN(C)C1=O [Compound 1741] ([NMeL]I[Sar][Sar][NMeCha][Sar][hPhe(3-Cl-4-CF3)]P[Ac5c][NMeAbu][NMeD]-Piperidide; lactam N-11) | > 500
CC[C@H](C)[C@@H]1NC(=O)[C@H](CC(C)C)N(C)C(=O)C[C@@H](C)NC(=O)[C@H](C(C)C)N(C)C(=O)C2(CCCC2)NC(=O)[C@@H]2CCCN2C(=O)[C@H](CCc2ccc(C(F)(F)F)c(Cl)c2)NC(=O)CN(C)C(=O)[C@H](COc2ccccc2Cl)N(C)C(=O)CN(C)C(=O)CN(C)C1=O [Compound 1582] | > 500
CC[C@H](C)[C@@H]1NC(=O)[C@H](CC(C)C)N(C)C(=O)C[C@@H](C(=O)N2CCCCC2)N(C)C(=O)[C@H](CC(C)C)NC(=O)[C@H](Cc2ccccc2)N(C)C(=O)[C@H](C)NC(=O)[C@H](Cc2cccc(I)c2)NC(=O)CN(C)C(=O)[C@H](Cc2ccc(C)cc2)N(C)C(=O)CN(C)C(=O)CN(C)C1=O [Compound 619] ([NMeL]I[Sar][Sar][NMePhe(4-Me)][Sar][Phe(3-I)]A[NMeF]L[NMeD]-Piperidide; lactam N-11) | > 500
CC[C@H](C)[C@@H]1NC(=O)[C@H](CC(C)C)N(C)C(=O)C[C@@H](C)NC(=O)[C@H](C(C)C)N(C)C(=O)C(C)(C)NC(=O)[C@@H]2CCCN2C(=O)[C@H](CCc2ccc(C(F)(F)F)c(Cl)c2)NC(=O)CN(C)C(=O)[C@H](CC2CCCCC2)N(C)C(=O)CN(C)C(=O)CN(C)C1=O [Compound 641] (cyclo([Aib][NMeV][d(β3hA)][NMeL]I[Sar][Sar][NMeCha][Sar][hPhe(3-Cl-4-CF3)]P)) | > 500
C#CC[C@H]1C(=O)N(C)CC(=O)N[C@@H](CCc2ccc(C(F)(F)F)c(Cl)c2)C(=O)N2CCC[C@H]2C(=O)NC2(CCCC2)C(=O)N(C)[C@@H](C2CCCCC2)C(=O)N(C)[C@H](C(=O)N2CCCCC2)CC(=O)N(C)[C@@H](CC(C)C)C(=O)N[C@@H]([C@@H](C)CC)C(=O)N(C)CC(=O)N(C)CC(=O)N1C [Compound 554] ([NMeL]I[Sar][Sar][NMePra][Sar][hPhe(3-Cl-4-CF3)]P[Ac5c][NMeChg][NMeD]-Piperidide; lactam N-11) | > 500
CCC[C@H]1C(=O)N[C@@H]([C@@H](C)CC)C(=O)N(C)[C@@H](C)C(=O)N2CC[C@H]2C(=O)N(C)[C@@H](CC2CCCCC2)C(=O)N(C)CC(=O)N[C@@H](CCc2ccc(C(F)(F)F)c(Cl)c2)C(=O)N2CCC[C@H]2C(=O)NC2(CCCC2)C(=O)N(C)[C@@H](C2CCCC2)C(=O)N(C)[C@H](C(=O)N2CCCCC2)CC(=O)N1C [Compound 391] ([NMeNva]I[NMeA][Aze][NMeCha][Sar][hPhe(3-Cl-4-CF3)]P[Ac5c][NMeGly(cPent)][NMeD]-Piperidide; lactam N-11) | ≤ 20
CC[C@H](C)[C@@H]1NC(=O)[C@H](CC(C)C)N(C)C(=O)C[C@@H](C(=O)N2CCCC2)N(C)C(=O)[C@H]([C@@H](C)CC)N(C)C(=O)C2(CCCC2)NC(=O)[C@@H]2CCCN2C(=O)[C@H](CCc2cc(F)c(C(F)(F)F)c(F)c2)NC(=O)CN(C)C(=O)[C@H](Cc2ccc(C(F)(F)F)cc2)N(C)C(=O)[C@@H]2CCN2C(=O)[C@H](C)N(C)C1=O [Compound 1343] ([NMeL]I[NMeA][Aze][NMePhe(4-CF3)][Sar][hPhe(3,5-F2-4-CF3)]P[Ac5c][NMeI][NMeD]-Pyrrolidide; lactam N-11) | ≤ 20
